Our source for the IC50, Activity and MTD values is ChEMBL document CHEMBL1250538 (Bioorg Med Chem, 2010).

Bounds are passed on as bounds.

For one data set, the system named is K562. As to the kind of experiment: Antiproliferative activity against human K562 cells. The data set is classed as functional, cell-based.
The nature of data set [1]: Antiproliferative activity against BCR-ABL1 transfected mouse BA/F3 cells. The data set is classed as functional, cell-based. The note with it: BaF3.
A short description of data set [2]: Antiproliferative activity against PDGFRbeta transfected mouse BA/F3 cells. Format: functional, cell-based. The note with it: BaF3.
The nature of data set [3]: Antiproliferative activity against human GIST882 cells. The data set is classed as functional, cell-based.
Data set [4] can be described thus: Antiproliferative activity against mouse M-NFS-60 cells. The data set is classed as functional, cell-based.
Data set [5] is described as follows: Antiproliferative activity mouse BA/F3 cells in presence of interleukin 3. The data set is classed as functional, cell-based. The note with it: BaF3.
For data set [6], the species on record is Homo sapiens. The experiment in a line: Toxicity in chronic CML patient assessed as cytogenetic response. Format: organism-based. The following applies: in vivo.
The species entered for data set [7] is Homo sapiens. As to the kind of experiment: Toxicity in chronic CML patient assessed as maximum tolerated dose. The data set is classed as organism-based. The note with it: in vivo.

As to `Cc1ccc(NC(=O)c2ccc(CN3CCN(C)CC3)cc2)cc1Nc1nccc(-c2cccnc2)n1` [IMATINIB], the IC50 with K562 amounted to 244 nM; in data set [1], 678 nM; in data set [2], 39 nM; in data set [3], 108 nM; in data set [4], 358 nM; in data set [5] it was 9460 nM. In the data set filed under Homo sapiens [6], the Activity result was “Non-toxic”. In addition, the MTD in the data set listed under Homo sapiens [7] was determined as 400 mg.

For `Cc1cn(-c2cc(NC(=O)c3ccc(C)c(Nc4nccc(-c5cccnc5)n4)c3)cc(C(F)(F)F)c2)cn1` [NILOTINIB], the IC50 in the data set with K562 was 21 nM; in data set [1], 25 nM; in data set [2] it was 62 nM; in data set [3] it was 151 nM; in data set [4] it was 838 nM; in data set [5], more than 10000 nM.
